“Also recorded” adds a separate entry of the source.
What was measured:
Type in all cases: cell-based, human
ERK1/2 [1] = assay: Western blotting of ERK1/2 phosphorylation in PBECs; conditions: pre-incubation with 10 μM for 1 hour, then ML-1 for 20 minutes
Experimental: (§1) FIGS. 6A-6D. Kinetic activation of ERK1/2 by ML-1 in PBECs (FIG. 6A) and HUVECs (FIG. 6B). The cells were incubated with or without ML-1 (100 ng/ml) for different time points as indicated. Western blotting analysis was performed by using antibodies against different MAP kinases as described in Example 8. FIGS. 6C and 6D. Effect of PD98059 on ML-1-induced phosphorylation of ERK1/2 in PBECs (FIG. 6C) and HUVECs (FIG. 6D). The cells were preincubated with PD98059 ([…]) or DMSO vehicle control for 1 hour, followed by stimulation of PBECs and HUVECs with medium or ML-1 for 20 minutes or 10 minutes, respectively. The results shown are representative of three separate experiments.
(§2) For analysis of activation of MAP kinases, PBECs were treated with IL-17 (100 ng/ml) for various time periods, with or without the MEK 1/2 inhibitor PD98059 ([…]; Calbiochem, La Jolla, Calif.) (15), the p38 inhibitor SB202190 (0.5-10 μM; ref. 16), or a vehicle control, DMSO (Me2SO) for 1 hour. […] Following the treatment, the cells were washed with ice-cold PBS. Cell pellets were immediately lysed in cold lysis buffer [20 mM Tris (pH 7.4), 4 mM EDTA, 2 mM EGTA, 1 mM PMSF, […] aprotinin, 200 mg/ml leupeptin, 50 mM NaF, 5 mM NaRP2O7, 1 mM Na3VO4, and 1% Nonidet P40; all purchased from Sigma]. Extracts (1×10^6 cell equivalents/lane) were suspended with an equal volume of 2× loading buffer [0.1 M Tris-HCl (pH 6.8)], 4% SDS, 0.005% bromophenol blue, and 20% glycerol) containing 2-ME (0.7 M) and subjected to 4-20% Tris-glycine gel electrophoresis (NOVEX, San Diego, Calif.). Gels were then transferred to PVDF membranes (BIO-RAD, Hercules, Calif.) with a Trans Blot apparatus (NOVEX). The membranes were immersed overnight in This-buffered saline/Tween 20 containing 5% nonfat dry skim milk (Carnation, Los Angeles, Calif.).
(§3) Immunoreactive proteins were detected using antibodies against various kinases and phosphorylated kinases. […] Western blotting detection reagents (Amersham) and Hyper ECL luminescence detection film (Amersham) were used. […]

ERK1/2 [2] = assay: Western blotting of ERK1/2 phosphorylation in HUVECs; conditions: pre-incubation with 10 μM for 1 hour, then ML-1 for 10 minutes
Experimental: as §1, §2, §3

IL-8 [3] = assay: IL-8 expression in HUVECs (ELISA, RT-PCR)
Experimental: (§4) FIG. 5. Analysis of IL-6 (FIG. 5A) and IL-8 (FIG. 5B) expression in primary bronchial epithelial cells (PBECs) and human umbilical vein endothelial cells (HUVECs) stimulated by ML-1. The IL-6 and IL-8 protein release in the supernatant was determined by ELISA as described in Example 8. The results were expressed as mean+SD (n=6). *p<0.05 was considered significant vs control.
(§5) FIG. 7A-7D. Effect of PD98059 on IL-6 (FIG. 7A) and IL-8 (FIG. 7B) protein production in PBECs and HUVECs. The cells were preincubated with varying concentrations of PD98059, SB202190, or DMSO vehicle control for 1 hour, followed by stimulation with ML-1 (100 ng/ml) for 24 hours. The results are expressed as the mean+SD (n=6). *P<0.05 when compared to cultures without the addition of PD98059. FIGS. 7C and 7D. Semi-quantitative analysis of gene expression for IL-6 (FIG. 7C) and IL-8 (FIG. 7D) by RT-PCR. The cells were preincubated as described above and treated with ML-1 for 4 hours. RT-PCR was performed as described in Example 8. The results shown are representative of three separate experiments.
(§6) Human umbilical vein endothelial cells (HUVECs) were obtained from Clonetics and cultured in endothelial cell growth media (EGM; Clonetics) containing 12 μg/ml bovine brain extract, 10 ng/ml EGF, 1 μg/ml hydrocortisone, 50 μg/ml gentimicin, 50 ng/ml amphotericin B, and 5% FBS amphotericin-B (Clonetics).
(§7) PBECs and HUVECs were treated with ML-1 100 ng/ml of ML-1 for various time points. Total RNA was extracted using RNeasy (Qiagen) from 1×10^6 cells 4 hours after stimulation or exchange of media. […]
(§8) The amplification reaction was performed for 23 cycles with denaturation at 94° C. for 45 seconds, annealing at 56° C. for 45 seconds, and extension at 72° C. for 45 seconds. PCR products were detected by ethidium bromide staining and normalized by the intensity of an amplified housekeeping gene, G3PDH (see above). […] IL-6 and IL-8 protein levels in the collected supernatants were determined with a commercially available ELISA kit (Biosource, Camarillo, Calif.) according to the manufacturer's instructions.

IL-6 [4] = assay: IL-6 expression in PBECs (ELISA, RT-PCR)
Experimental: as §4, §5
(§9) Primary bronchial epithelial cells (PBECs) were purchased from Clonetics (San Diego, Calif.) and cultured in bronchial epithelial basal medium (Clonetics) containing 0.5 ng/ml human recombinant epidermal growth factor (EGF), 52 mg/ml bovine pituitary extract, 0.1 mg/ml retinoic acid, 0.5 mg/ml hydrocortisone, 5 mg/ml insulin, 10 mg/ml transferrin, 0.5 mg/ml epinephrine, 6.5 ng/ml triiodothyronine, […] gentamicin, and 50 pg/ml amphotericin-B (Clonetics). […]
as §8

IL-8 [5] = assay: IL-8 expression in PBECs (ELISA, RT-PCR)
Experimental: as §4, §5, §9, §8

IL-6 [6] = assay: IL-6 expression in HUVECs (ELISA, RT-PCR)
Experimental: as §4, §5, §6, §7, §8

ICAM-1 = ICAM-1 surface protein expression on NHBE cells by flow cytometry; conditions: 100 ng/ml, 48 hours, mean±SD (n=4)
Experimental: FIG. 4. Effect of ML-1 on ICAM-1 surface expression on NHBE cells by Flow Cytometry. NHBE cells were treated for 48 hours under following conditions: medium only, rIL-17 (100 ng/ml), purified His-tagged protein (Positope, 100 ng/ml), or ML-1 (100 ng/ml) as indicated. The mean fluorescence intensity of ICAM-1 surface expression was measured. The experiment was conducted four times. The results shown are from a representative experiment. * p<0.01.
To determine whether ML-1 is able to induce ICAM-1 expression on NHBE cells, surface expression of ICAM-1 on NHBE cells was measured and the effects of ML-1 and IL-17 were compared.
NHBE cells were treated with IL-17 (100 ng/ml), ML-1 (100 ng/ml), or a control His protein (Positope, 100 ng/ml). The cells were harvested following treatment with 0.1% trypsin-0.02% EDTA at 37° C. for 6 minutes and suspended in PBS containing 2% BSA and 0.02 % sodium azide. One million cells were incubated with a mouse anti-human ICAM-1 monoclonal antibody (R&D Systems, Minneapolis, Minn.) on ice for 30 minutes. […] After three additional washes in PBS, the cells were resuspended in PBS and immediately analyzed with a FACScan flow cytometer (Becton Dickinson, Mountain View, Calif.). […] Indices are expressed as mean±SD (n=4).

IL-8 [7] = assay: IL-8 expression in NHBE cells (RT-PCR and ELISA); conditions: 100 ng/ml
Text: FIGS. 3A-3C. FIG. 3A, Expression of ML-1 protein in COS-7 cells. COS-7 cells were transfected with a gene construct containing full-length ML-1 sequence and a tag sequence encoding poly (His) peptide. ML-1-His fusion proteins were purified from supernatants of the transfected cells using a His affinity column, run on an 8-16% SDS-polyacrylamide gel under reducing conditions, and analyzed by Western Blot using anti-His monoclonal antibody. Lane 1 represents a mock-transfected sample. Lane 2 represents an ML-1-transfected sample. The location of a 19.5 kd marker is indicated. FIG. 3B, Effect of ML-1 on IL-8 gene expression. Human primary bronchial epithelial cells (NHBE cells) were treated with different stimuli. The cells were harvested 4 hours after stimulation, and total RNA was extracted and subjected to RT-PCR using IL-8 and G3PDH primers. Lane 1, medium only; lane 2, cells treated with rIL-17 (100 ng/ml); lane 3, cells treated with purified His-tagged protein (Positope, 100 ng/ml); lane 4, cells treated with ML-1 (100 ng/ml). FIG. 3C, Effect of ML-1 on IL-8 protein production. NHBE cells were treated with the same stimuli used in FIG. 3B, and the supernatants were harvested 48 hours after stimulation.
Primary human bronchial epithelial (NHBE) cells were purchased from Clonetics (San Diego, Calif.) and cultured according to the manufacturer's instructions. The cells were treated with IL-17 (100 ng/ml), ML-1 (100 ng/ml), or a control His-tagged protein (Positope, 100 ng/ml; Invitrogen, Carlsbad, Calif.). The affinity-purified control His protein was dissolved in the same buffer as ML-1. Total RNA was extracted using Rneasy (Qiagen, Chatsworth, Calif.) from 1×10^6 cells 4 hours after stimulation or exchange of media. The protocol for cDNA synthesis was that described above. For PCR, the sequences of PCR primers were based on the human IL-8 cDNA sequence. The sequences of PCR primers for IL-8 were: forward, 5′-TCTGCAGCTCTGTGTGAAG-3′ (SEQ ID NO:14) and reverse, 5′-TAATTTCTGTGTTGGCGCA-3′ (SEQ ID NO:15). The amplification reaction was performed for 23 cycles with denaturation at 94° C. for 45 seconds, annealing at 56° C. for 45 seconds, and extension at 72° C. for 45 seconds PCR products were detected by ethidium bromide staining. The expected size for IL-8 was 154 basepairs. IL-8 protein levels in the collected supernatants were determined with a commercially available ELISA kit (Biosource, Camarillo, Calif.) according to the manufacturer's instructions.

[8] = 1 hour preincubation, varying concentrations, ML-1 100 ng/ml 24 hours
[9] = preincubation, ML-1 for 4 hours, semi-quantitative RT-PCR

COc1cccc(-c2cc(=O)c3ccccc3o2)c1N [PD98059]
effect on ML-1-induced activation of ERK1/2 (ERK1/2 [1]): diminished
effect on ML-1-induced activation of ERK1/2 (ERK1/2 [2]): diminished
effect on ML-1-induced IL-8 protein production (IL-8 [3]; [8]): inhibited; also recorded: not completely inhibited
effect on ML-1-induced IL-8 gene expression (IL-8 [3]; [9]): Decreased levels
effect on ML-1-induced IL-6 protein production (IL-6 [4]; [8]): inhibited; also recorded: not completely inhibited
effect on ML-1-induced IL-6 gene expression (IL-6 [4]; [9]): Decreased levels
effect on ML-1-induced IL-8 protein production (IL-8 [5]; [8]): inhibited; also recorded: not completely inhibited
effect on ML-1-induced IL-8 gene expression (IL-8 [5]; [9]): Decreased levels
effect on ML-1-induced IL-6 protein production (IL-6 [6]; [8]): inhibited; also recorded: not completely inhibited
effect on ML-1-induced IL-6 gene expression (IL-6 [6]; [9]): Decreased levels

IL-17: human IL-17, T-cell derived homodimeric cytokine, used as comparator
ICAM-1 surface expression, mean fluorescence intensity (MFI) (ICAM-1): 10.07±1.22
IL-8 protein expression (IL-8 [7]; ELISA of supernatants, 48 hours): enhanced
IL-8 transcript expression (IL-8 [7]; RT-PCR): enhanced
